row,Structure (SMILES),melting point
1,CCCCCCCCCCCCc1cc2c(s1)NC(=O)CN=C2c1ccccc1Cl,119 to 121 °C
2,COc1cc2c(cc1OC)-c1c(C(=O)NC3CCCCC3)c(-c3cc(C)c(O)c(C)c3)c(C)n1CC2,273 to 276 °C
3,COC(C)(OC)OC(=O)N[C@@H](Cc1cn(S(=O)(=O)c2ccc(C)cc2)cn1)C(=O)O,120 °C
4,CC(=O)N(Cc1ccccc1)c1c(F)c(F)cc(F)c1C(=O)O,150 to 153 °C
5,Cc1noc(CC(=O)O)n1,95 °C
6,O=C(O)c1ccc2c(c1)C(=O)c1ccccc1OC2,264 to 269 °C
7,OC1c2ccc(OCc3ccccc3)cc2OCC1N1CCC(O)(c2ccc(F)cc2)CC1 (stereo not drawn),194 to 195 °C
8,Cc1c(C)c2c(c(C)c1OCc1ccc(S(C)(=O)=O)cc1)C(c1ccc(C(C)C)cc1)C(C)(C)O2 (stereo not drawn),161 to 162 °C
9,CC(C)N(C)c1cccc([N+](=O)[O-])c1C#N,70 to 72 °C
10,COCCCNCc1ccc(-c2cc3ncnc(Nc4ccc5[nH]ccc5c4)c3s2)cc1,160 to 175 °C
11,CCC(c1ccc(C(=O)OC)cc1)C(C)NCC(O)c1ccc(O)c(CO)c1 (stereo not drawn),73 to 75 °C
12,COCC(=O)Nc1cc2c(cc1C#N)C(Nc1ccc(C(=O)OC(C)(C)C)cc1)CC2 (stereo not drawn),163 to 164 °C
13,Cc1ccc(N)cc1C(=S)OC(C)(C)C,76 to 78 °C
14,OCC1(CO)CC(Cc2ccc(F)cc2)=NO1,93 to 97 °C
15,CC(C)=NOCc1nc2c(N)nc3ccccc3c2n1CC(C)C,194 to 195 °C
16,N#CC1CCc2c(OCCn3ccnc3)cccc21 (stereo not drawn),115 to 117 °C
17,COc1ccc(-n2cccc2-c2ccc(S(C)(=O)=O)cc2)cc1F,116 to 118 °C
18,O=C(O)C1CCc2c(oc3cc(Cl)ccc23)C1 (stereo not drawn),189 to 191 °C
19,COC(=O)c1ccc(-c2nc3c(OC)cccc3s2)cc1,165 to 167 °C
20,COC(=O)c1cc(C(=O)c2c(C)c(NC(=O)c3cccc(OCCOS(C)(=O)=O)c3)c3ccccn23)ccc1N,171 °C
21,CCOC(=NC(=O)c1ccc(-c2ccccc2)cc1)N1Cc2ccccc2-c2ccccc2C1,52 to 58 °C
22,O=[N+]([O-])c1cnn2c(-c3cccc(C(F)(F)F)c3)ccnc12,159 to 161 °C
23,CCCc1ccc(C(=O)Nc2ccc3c(c2)nc(C)n3C)cc1,214 to 218 °C
24,Cc1cc(-c2cc(C(F)(F)F)n3ncc(-c4nc(-c5cnc(N)nc5)no4)c3n2)ccc1Cl,272 °C
25,Cc1nc2c(S(=O)(=O)Cl)cccc2s1,100 to 102 °C

row,Structure (SMILES),melting point
1,Cc1occc1C(=S)Nc1ccc(Cl)c(C=NN2CCOCC2)c1,142 to 143 °C
2,Cc1nccn1-c1nc(-c2ccc(Cl)cc2)c(CCCOc2ccccc2O)o1,110 to 111 °C
3,CN1C(=O)CC[C@]2(C)c3ccc(-c4nc5ccccc5s4)cc3CC[C@@H]12,207 to 212 °C
4,O=C(C(=O)c1cnn(CC(F)(F)F)c1)c1cccc(Br)c1,66 to 67 °C
5,Cc1cc(C)c2nc(-c3cnc(NCCCC4CCN(C)CC4)nc3C)[nH]c2c1,179 °C
6,CC(=O)CCc1ccc2c(c1)COc1ccc(OCc3ccc4cc(F)c(Cl)cc4n3)cc1C2SCCC(=O)O (stereo not drawn),115 to 118 °C
7,O=[N+]([O-])c1ccc(Br)cc1O,40 to 42 °C
8,CCCN(CC1CC1)C(=O)c1c2c(nn1C)N(c1c(C)cc(C)cc1Cl)CCC2,121 to 122 °C
9,O=C(O)C1(CC#CBr)CCCCC1,98 °C
10,CCN1CCCC1=NC(=O)Nc1cccc(Cl)c1,122 to 124 °C
11,CC(=O)N1CCC(C(=O)N(CCCN2CC3CN(C(=O)c4c(C)ccnc4C)CC3C2)c2ccc(C)c(Cl)c2)CC1 (stereo not drawn),81.5 to 83.6 °C
12,O=Cc1cccc2c(Br)c3ccccc3cc12,134 to 136 °C
13,O=C(c1ccccc1)P1(=O)Oc2ccccc2-c2ccccc21 (stereo not drawn),134 to 135 °C
14,C#Cc1ccc(C(=O)NCC(N)C(c2ccccc2)(c2ccccc2)c2ccccc2)cc1 (stereo not drawn),50 to 51 °C
15,COc1ccc(SC(C(=O)NO)c2ccccc2)cc1 (stereo not drawn),155 °C
16,c1ccc(COc2cncc(N3CCNCC3)n2)cc1,155 to 156 °C
17,Cc1cccc2c1NC(=O)C2(c1ccc(O)cc1)c1ccc(O)cc1,272 to 274 °C
18,CCOC(=O)c1ncn2c1c(=O)[nH]c1cc(S(C)(=O)=O)ccc12,> 300 °C
19,COc1ccc(C2c3ccccc3C(c3ccc(OC)cc3)C2C(=O)O)cc1 (stereo not drawn),192 to 193 °C
20,Cc1cc(Cl)cc2c1OCC(/C=C/C=C/C=C/C(=O)O)=C2,208 to 210 °C
21,CN(C(=O)OCc1ccccc1)[C@H]1CNc2ccccc2C1,80 °C
22,O=C1C(c2ccccc2)=C(c2ccccc2)C(=O)N1Cc1ccccc1,123 to 124 °C
23,CN1C(=O)[C@H](NC(=O)Nc2cccc(CC(=O)O)c2)N=C(c2ccccc2)c2ccccc21,167 to 170 °C
24,COc1ccc([C@@H]2OC(=O)[C@H](Cc3ccccc3)N2C(=O)OCc2ccccc2)cc1,85 °C
25,CCc1c(-c2ccc(O)cc2)c2ccc3ccc(CO)c1n32,154 to 156 °C

row,Structure (SMILES),melting point
1,CC(C)OC(=O)c1cc(N=C=O)c(F)cc1Cl,41 to 43 °C
2,CC(C)(C)c1ccc(S(=O)(=O)/C=C/C(N)=O)cc1,151 °C
3,Cc1ccccc1-c1noc2c3c(c(Cl)cc12)OC(C(=O)O)C3 (stereo not drawn),192 to 195 °C
4,COCC(C#N)=Cc1cc(OC)c2c(c1)OCO2,115 °C
5,CCCCc1cn(Cc2ccc(-c3ccccc3C(=O)O)cc2)c2c(Br)cccc2c1=O,180 °C
6,CC(=O)Oc1ccc(C(=O)NNC(=O)OC(C)(C)C)cc1OC(C)=O,78 to 82 °C
7,N#Cc1ccccc1-c1ccc2[nH]c(Cc3ccccc3)nc2c1,133 to 140 °C
8,Cc1ccccc1C(=O)P(=O)(c1ccccc1)c1ccccc1,107 °C
9,COCCN1CCN(S(=O)(=O)c2ccc(-c3cnc4[nH]c(CCc5cc(OC)ccn5)nc4c3)cc2)CC1,206 to 208 °C
10,C#CCN1CC(=O)N(c2cc(Cl)ccc2C)C1=S,131 to 134 °C
11,O=C(c1ccccc1OCCCCl)c1cccc2[nH]ccc12,94 °C
12,Cc1cccc2c(-c3ccc(F)cc3)nccc12,91 to 92 °C
13,CN(C)c1cc2ccccn2n1,51 to 52 °C
14,NNc1ccnc2c(NC(=O)c3c(Cl)cccc3Cl)cccc12,204 to 206 °C
15,CCOC(=N)C1(O)CCCc2ccccc21 (stereo not drawn),84 to 86 °C
16,COc1cc2cc(C(=O)OCc3ccccc3)n(CC(=O)OC(C)(C)C)c2cn1,110 °C
17,C#Cc1cn(-c2c(Cl)cc(C(F)(F)F)cc2Cl)c2ccccc12,120 to 122 °C
18,CC(=O)N1CC2OC(C3OCCO3)(C1)c1ccccc12 (stereo not drawn),122 to 123 °C
19,CS(=O)(=O)c1ccc(/C(=C(/CO)CCO)c2ccc(Cl)cc2)cc1,159 to 160 °C
20,Nc1ccnc(SCc2ccccn2)n1,133 to 134 °C
21,Cc1ccc(S(=O)(=O)Nc2ccc(C#N)cc2C#N)cc1,200 to 206 °C
22,CC(=O)Nc1ccccc1-c1ccc2c(c1)S(=O)(=O)NC(C1CCCCC1)N2 (stereo not drawn),245 to 249 °C
23,Cc1ccc(C2CCN(CCc3c(C)[nH]c4ccccc34)CC2)cc1,192 to 194 °C

# Source: a melting point compilation (Tetko et al.; mined from patent text by program, amines drawn as free bases though some values may be those of a salt)
